Assay results as given in PMC12203311, “Design, synthesis, in silico and in vitro evaluation of pyrrole–indole hybrids as dual tubulin and aromatase inhibitors with potent anticancer activities” (RSC Advances, 2025).
Like-named read-outs stand apart in the source and are kept apart here.

What was measured:
CCRF-CEM = test: NCI60 five-dose screen; type: cell-based; settings: Homo sapiens, leukemia; for CC50: read-out: LC50 (the source's name)
HL-60 (TB) = test: NCI60 five-dose screen; type: cell-based; settings: Homo sapiens, leukemia; for CC50: read-out: LC50 (the source's name)
MOLT-4 = test: NCI60 five-dose screen; type: cell-based; settings: Homo sapiens, MOLT-4, leukemia; for CC50: read-out: LC50 (the source's name)
RPMI-8226 = test: NCI60 five-dose screen; type: cell-based; settings: Homo sapiens, RPMI-8226, leukemia; for CC50: read-out: LC50 (the source's name)
NCI-H322M = test: NCI60 five-dose screen; type: cell-based; settings: Homo sapiens, NSC lung cancer; for CC50: read-out: LC50 (the source's name)
NCI-H522 = test: NCI60 five-dose screen; type: cell-based; settings: Homo sapiens, NCI-H522, NSC lung cancer; for CC50: read-out: LC50 (the source's name)
HCC-2998 = test: NCI60 five-dose screen; type: cell-based; settings: Homo sapiens, HCC-2998, colon cancer; for CC50: read-out: LC50 (the source's name)
KM12 = test: NCI60 five-dose screen; type: cell-based; settings: Homo sapiens, KM12, colon cancer; for CC50: read-out: LC50 (the source's name)
SW-620 = test: NCI60 five-dose screen; type: cell-based; settings: Homo sapiens, SW-620, colon cancer; for CC50: read-out: LC50 (the source's name)
SF-268 = test: NCI60 five-dose screen; type: cell-based; settings: Homo sapiens, SF-268, CNS cancer; for CC50: read-out: LC50 (the source's name)
SF-295 = test: NCI60 five-dose screen; type: cell-based; settings: Homo sapiens, SF-295, CNS cancer; for CC50: read-out: LC50 (the source's name)
SNB-19 = test: NCI60 five-dose screen; type: cell-based; settings: Homo sapiens, SNB-19, CNS cancer; for CC50: read-out: LC50 (the source's name)
U251 = test: NCI60 five-dose screen; type: cell-based; settings: Homo sapiens, U-251, U251, CNS cancer; for CC50: read-out: LC50 (the source's name)
MALME-3M = test: NCI60 five-dose screen; type: cell-based; settings: Homo sapiens, melanoma; for CC50: read-out: LC50 (the source's name)
SK-MEL-28 = test: NCI60 five-dose screen; type: cell-based; settings: Homo sapiens, SK-MEL-28, melanoma; for CC50: read-out: LC50 (the source's name)
UACC-257 = test: NCI60 five-dose screen; type: cell-based; settings: Homo sapiens, UACC-257, melanoma; for CC50: read-out: LC50 (the source's name)
OVCAR-5 = test: NCI60 five-dose screen; type: cell-based; settings: Homo sapiens, OVCAR-5, ovarian cancer; for CC50: read-out: LC50 (the source's name)
OVCAR-8 = test: NCI60 five-dose screen; type: cell-based; settings: Homo sapiens, OVCAR-8, ovarian cancer; for CC50: read-out: LC50 (the source's name)
NCI/ADR-RES = test: NCI60 five-dose screen; type: cell-based, human; settings: ovarian cancer; for CC50: read-out: LC50 (the source's name)
SK-OV-3 = test: NCI60 five-dose screen; type: cell-based; settings: Homo sapiens, SK-OV-3, ovarian cancer; for CC50: read-out: LC50 (the source's name)
SN12C = test: NCI60 five-dose screen; type: cell-based; settings: Homo sapiens, renal cancer; for CC50: read-out: LC50 (the source's name)
TK-10 = test: NCI60 five-dose screen; type: cell-based; settings: Homo sapiens, TK-10, renal cancer; for CC50: read-out: LC50 (the source's name)
UO-31 = test: NCI60 five-dose screen; type: cell-based; settings: Homo sapiens, UO-31, renal cancer; for CC50: read-out: LC50 (the source's name)
MDA-MB-231/ATCC = test: NCI60 five-dose screen; type: cell-based; settings: Homo sapiens, breast cancer; for CC50: read-out: LC50 (the source's name)
HS 578T = test: NCI60 five-dose screen; type: cell-based; settings: Homo sapiens, breast cancer; for CC50: read-out: LC50 (the source's name)
T-47D = test: NCI60 five-dose screen; type: cell-based; settings: Homo sapiens, T47D, breast cancer; for CC50: read-out: LC50 (the source's name)
MDA-MB-468 = test: NCI60 five-dose screen; type: cell-based; settings: Homo sapiens, MDA-MB-468, breast cancer; for CC50: read-out: LC50 (the source's name)
Human CYP19 (aromatase) = molecular target: T1, Human CYP19 (aromatase) (Homo sapiens, UniProt P11511); test: Aromatase inhibition assay (DBF fluorometric substrate); type: biochemical; settings: active defined as IC50 < 12.5 µM
T1 construct: purchased GENTEST, Woburn, MA 456260; host or cells: baculovirus/insect cells
T1 sequence (P11511 1-503): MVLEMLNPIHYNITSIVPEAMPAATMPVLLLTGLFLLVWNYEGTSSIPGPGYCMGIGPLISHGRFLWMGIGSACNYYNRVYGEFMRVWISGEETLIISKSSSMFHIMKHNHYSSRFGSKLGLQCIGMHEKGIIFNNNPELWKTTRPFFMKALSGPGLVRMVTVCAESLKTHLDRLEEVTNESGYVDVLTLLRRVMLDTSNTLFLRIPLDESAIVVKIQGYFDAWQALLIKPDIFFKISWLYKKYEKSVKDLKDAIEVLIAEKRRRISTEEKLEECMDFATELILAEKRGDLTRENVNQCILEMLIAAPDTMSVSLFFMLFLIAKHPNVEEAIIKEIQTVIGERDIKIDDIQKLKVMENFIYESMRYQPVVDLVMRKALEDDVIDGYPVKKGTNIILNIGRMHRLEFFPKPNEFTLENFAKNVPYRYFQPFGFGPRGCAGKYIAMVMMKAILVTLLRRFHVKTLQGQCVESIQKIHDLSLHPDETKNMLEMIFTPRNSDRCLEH
In short: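 Insect-cell-expressed human CYP19 Supersomes with oxidoreductase turned over DBF for 30 min at 37 °C after a 10 min 37 °C pre-incubation with cofactor. NaOH quench; product measured by fluorescence, excitation 490 nm, emission 530 nm.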

`O=C(N/N=C/c1cc(Br)c[nH]1)c1[nH]c2ccc(Br)cc2c1-c1ccccc1` [Derivative 3e, (E)-5-Bromo-N′-((4-bromo-1H-pyrrol-2-yl)methylene)-3-phenyl-1H-indole-2-carbohydrazide] showed a GI50 (CCRF-CEM) of 0.341 µM, a CC50 (CCRF-CEM) of over 100 µM and a GI50 (HL-60 (TB)) of 0.327 µM. For the same compound, the CC50 (HL-60 (TB)) was over 100 µM, the GI50 (MOLT-4) was 0.375 µM and the CC50 (MOLT-4) was over 100 µM. It also gave a GI50 (RPMI-8226) of 0.346 µM, a CC50 (RPMI-8226) of over 100 µM and a GI50 (NCI-H322M) of 0.578 µM. The CC50 (NCI-H322M) was 38.8 µM, the GI50 (NCI-H522) was 0.185 µM and the CC50 (NCI-H522) was 19.1 µM. The GI50 (HCC-2998) was 0.296 µM, the CC50 (HCC-2998) was 15.6 µM and the GI50 (KM12) was 0.301 µM. It also gave a CC50 (KM12) of 16.3 µM, a GI50 (SW-620) of 0.405 µM and a CC50 (SW-620) of 59.4 µM. For the same compound, the GI50 (SF-268) was 0.529 µM, the CC50 (SF-268) was 52.9 µM and the GI50 (SF-295) was 0.254 µM. It also gave a CC50 (SF-295) of 25.9 µM, a GI50 (SNB-19) of 0.33 µM and a CC50 (SNB-19) of 34.5 µM. The GI50 (U251) was 0.418 µM, the CC50 (U251) was 10.1 µM and the GI50 (MALME-3M) was 0.665 µM. For the same compound, the CC50 (MALME-3M) was 32.5 µM, the GI50 (SK-MEL-28) was 0.612 µM and the CC50 (SK-MEL-28) was 43.9 µM. For the same compound, the GI50 (UACC-257) was 1.09 µM, the CC50 (UACC-257) was 47 µM and the GI50 (OVCAR-5) was 0.346 µM. It also gave a CC50 (OVCAR-5) of 26.5 µM, a GI50 (OVCAR-8) of 0.304 µM and a CC50 (OVCAR-8) of 18.2 µM. It also gave a GI50 (NCI/ADR-RES; Homo sapiens) of 0.197 µM, a CC50 (NCI/ADR-RES; Homo sapiens) of 0.97 µM and a CC50 (NCI/ADR-RES) of 0.971 µM. It also gave a GI50 (SK-OV-3) of 0.966 µM, a CC50 (SK-OV-3) of 53.8 µM and a GI50 (SN12C) of 0.31 µM. The CC50 (SN12C) was 5.49 µM, the GI50 (TK-10) was 4.21 µM and the CC50 (TK-10) was 44.9 µM. For the same compound, the GI50 (UO-31) was 0.618 µM, the CC50 (UO-31) was 28.1 µM and the GI50 (MDA-MB-231/ATCC) was 0.215 µM. For the same compound, the CC50 (MDA-MB-231/ATCC) was 14.3 µM, the GI50 (HS 578T) was 0.34 µM and the CC50 (HS 578T) was over 100 µM. For the same compound, the GI50 (T-47D) was 1.4 µM, the CC50 (T-47D) was 82.5 µM and the GI50 (MDA-MB-468) was 0.231 µM. For the same compound, the CC50 (MDA-MB-468) was 13 µM and the IC50 (Human CYP19 (aromatase)) was 4 ± 1 µM.

In the case of `O=C(N/N=C/c1ccc[nH]1)c1[nH]c2ccc(Br)cc2c1-c1ccccc1` [Derivative 3a, (E)-N′-((1H-Pyrrol-2-yl)methylene)-5-bromo-3-phenyl-1H-indole-2-carbohydrazide], the GI50 (CCRF-CEM) is reported as 0.345 µM, the CC50 (CCRF-CEM) is reported as over 100 µM and the GI50 (HL-60 (TB)) is reported as 0.242 µM. It also gave a CC50 (HL-60 (TB)) of over 100 µM, a GI50 (MOLT-4) of 0.384 µM and a CC50 (MOLT-4) of over 100 µM. The GI50 (RPMI-8226) was 0.337 µM, the CC50 (RPMI-8226) was over 100 µM and the GI50 (NCI-H322M) was 0.661 µM. For the same compound, the CC50 (NCI-H322M) was 36.5 µM, the GI50 (NCI-H522) was 0.045 µM and the CC50 (NCI-H522) was 22 µM. It also gave a GI50 (HCC-2998) of 0.415 µM, a CC50 (HCC-2998) of 19.5 µM and a GI50 (KM12) of 0.388 µM. For the same compound, the CC50 (KM12) was 56.5 µM, the GI50 (SW-620) was 0.352 µM and the CC50 (SW-620) was 37.4 µM. For the same compound, the GI50 (SF-268) was 0.995 µM, the CC50 (SF-268) was 56.4 µM and the GI50 (SF-295) was 0.224 µM. It also gave a CC50 (SF-295) of 23.2 µM, a GI50 (SNB-19) of 0.416 µM and a CC50 (SNB-19) of 35 µM. It also gave a GI50 (U251) of 0.375 µM, a CC50 (U251) of 12.4 µM and a GI50 (MALME-3M) of 0.32 µM. The CC50 (MALME-3M) was 30.9 µM, the GI50 (SK-MEL-28) was 0.488 µM and the CC50 (SK-MEL-28) was 37.4 µM. It also gave a GI50 (UACC-257) of 0.647 µM, a CC50 (UACC-257) of 47.1 µM and a GI50 (OVCAR-5) of 0.437 µM. The CC50 (OVCAR-5) was 30.8 µM, the GI50 (OVCAR-8) was 0.323 µM and the CC50 (OVCAR-8) was 6.55 µM. For the same compound, the GI50 (NCI/ADR-RES; Homo sapiens) was 0.44 µM, the CC50 (NCI/ADR-RES; Homo sapiens) was 59.2 µM and the GI50 (SK-OV-3) was 0.702 µM. The CC50 (SK-OV-3) was 31.8 µM, the GI50 (SN12C) was 0.371 µM and the CC50 (SN12C) was 3.97 µM. For the same compound, the GI50 (TK-10) was 2.46 µM, the CC50 (TK-10) was 37.1 µM and the GI50 (UO-31) was 0.431 µM. The CC50 (UO-31) was 20.2 µM, the GI50 (MDA-MB-231/ATCC) was 0.396 µM and the CC50 (MDA-MB-231/ATCC) was 21 µM. It also gave a GI50 (HS 578T) of 0.452 µM, a CC50 (HS 578T) of over 100 µM and a GI50 (T-47D) of 0.341 µM. The CC50 (T-47D) was 51.3 µM, the GI50 (MDA-MB-468) was 0.209 µM and the CC50 (MDA-MB-468) was 42.1 µM. The IC50 (Human CYP19 (aromatase)) was 3.4 ± 0.6 µM.
